We go through five molecules from patent US20180153995A1, “USE OF ANTIMICROBIAL POLYMERS FOR RE-SENSITIZATION OF MICROORGANISMS UPON EMERGENCE OF RESISTANCE TO ANTI-MICROBIAL AGENTS” (Technion Research & Development Foundation Limited, priority 2008, published 2018).

In brackets after ≈: the same amount, converted by molar mass. Numbered stars: 1 amine (or outer) side, 2 acyl side, 3 side chain; on linkers, the order of the positions; unused ones are H or OH. Square brackets hold non-standard residues; d marks the D form. Peptide text beside a SMILES is read from it. * marks the point of attachment. NH(CH2)9CO = O=C(CCCCCCCCCN[*:1])[*:2]; Lauroyl = CCCCCCCCCCCC(=O)*; 12Ado = NCCCCCCCCCCCC(=O)O

In assay [1] the test system is MRSA 15903. Kind of assay: microbe, parasite or virus in culture. The conditions noted are these: for optimal re-sensitization polymer concentration: with oxacillin. Type of assay: cell-based, Staphylococcus aureus. As for the experimental part:
(§1) The fractionary inhibitory (FIC) concentration index for combinations of two antimicrobial agents was calculated as follows: FIC index=FICA+FICB=A/MICA+B/MICB where A and B are the MIC values of agent A and agent B in the combination, MICA and MICB are the MICs of agent A and agent B alone, and FICA and FICB are the FICs of agent A and agent B.
(§2) The FIC indexes were interpreted as follows: less than 0.5 indicates a clear re-sensitizing effect; from 0.5 to 4 indicates a marginal or null re-sensitizing effect; and over 4 indicates antagonism.
Experimental data for FIG. 4 were obtained as follows.

Assay [2] has as its system MRSA 15852. Type of assay: cell-based, Staphylococcus aureus. The conditions noted are these: 15852. As for the experimental part: as §1, §2
The test system of assay [3] is ATCC 25923. Kind of assay: microbe, parasite or virus in culture. It is filed as cell-based, Staphylococcus aureus. The settings on record: ATCC 25923. As for the experimental part: (§3) MICs were determined by microdilution susceptibility testing in 96-well plates (by Nunc) using inocula of 10^5 bacteria per ml. Cell populations were evaluated by optical density measurements at 620 nm and were calibrated against a set of standards. Hundred (100) μl of a bacterial suspension were added to 100 μl of culture medium (control) or to 100 μl of culture medium containing various polymer concentrations in 2-fold serial dilutions. Inhibition of proliferation was determined by optical density measurements at 620 nm after an incubation period of 24 hours at 37° C.

Assay [4] has as its system ATCC 29213. In words: microbe, parasite or virus in culture. Type of assay: cell-based, Staphylococcus aureus. The conditions noted are these: ATCC 29213. As for the experimental part:
as §3, §1, §2

The subject of assay [5] is MRSA 15918. In words: microbe, parasite or virus in culture. The settings on record: 15918. Type of assay: cell-based, Staphylococcus aureus. As for the experimental part:
as §3, §1, §2

Assay [6] concerns S. aureus ATCC 29213. In words: microbe, parasite or virus in culture. As for the experimental part: In parallel, MIC evolution was compared concomitantly for each new sub-culture, using bacteria harvested from control wells (wells cultured without antimicrobial agent from the previous sub-culture). The relative MIC was calculated for each experiment from the ratio of MIC obtained for subculture “n” to that obtained for first-time exposure.
The relative MIC was determined as the normalized ratio of the MIC obtained for a given subculture to the MIC of the control.
MICs were determined by microdilution susceptibility testing in 96-well plates using inocula of 10^5 bacteria per ml. Cell populations were evaluated by optical density measurements at 600 nm and were calibrated against a set of standards.
In parallel, MIC evolution was compared concomitantly for each new generation, using bacteria harvested from control wells (wells cultured without antimicrobial agent from the previous generation). The relative MIC was calculated for each experiment from the ratio of MIC obtained for subculture “n” to that obtained for first-time exposure. […] MICs were determined by microdilution susceptibility testing in 96-well plates. Cell populations were evaluated by optical density measurements at 600 nm and were calibrated against a set of standards.

Assay [7] relates to E. coli 16327. In words: microbe, parasite or virus in culture. The conditions noted are these: 16327. As for the experimental part:
as §3
100 μl of a bacterial suspension were added to 100 μl of culture medium (control) or to 100 μl of culture medium containing various antibiotic and C14(9-ene)KKNC12KNH2 (SEQ ID NO: 5) concentrations in 2-fold serial dilutions. Inhibition of proliferation was determined by optical density measurements at 620 nm after an incubation period of 24 hours at 37° C.

Assay [8] relates to various strains of S. aureus, E. coli P. aeruginosa, P. mirabilis and S. maltophila. It is filed as cell-based. The settings on record: strain not stated. As for the experimental part:
Antibacterial activity was determined using various strains of S. aureus, E. coli P. aeruginosa, P. mirabilis and S. maltophila, cultured in LB medium (10 grams/liter trypton, 5 grams/liter yeast extract, 5 grams/liter NaCl, pH 7.4). Bacterial strains include susceptible strains of Staphylococcus aureus, Pseudomonas aeruginosa, Bacillus cereus and Escherichia coli (ATCC, American Type Culture Collection), as well as antibiotic-resistant strains such as oxacillin-resistant Staphylococcus aureus (ORSA) and methicillin-resistant Staphylococcus aureus (MRSA).
as §3

The subject of assay [9] is MRSA 15903. Kind of assay: Sub-MIC time-kill curves (CFU counts). Type of assay: cell-based, Staphylococcus aureus. The conditions noted are these: sub-MIC time-kill, single agent. As for the experimental part: At the specified time points of incubation (37° C. under shaking), cultures were subjected to serial 10-fold dilutions (up to 10^6) by adding 50 μl of sample to 450 μl saline (0.85% NaCl). Cell counts were determined using the drop plate method (three 20-μl drops onto LB-agar plates). Plates were incubated at 37° C. and colonies were counted for the calculation after incubation for 24 hours.

As to `CCCCCCC=CCCCC(=O)N[C@@H](CCCCN)C(=O)N[C@@H](CCCCN)C(=O)NCCCCCCCCCCCC(=O)N[C@@H](CCCCN)C(N)=O` [C12(5-ene)KKNC12KNH2], the MIC was 3.1 to 6.2 µM in [1] (15903); 6.2 µM in [2]; 3.1 µM (≈ 2.42 µg/mL) in assay [3]; 6.2 µM in [4]; 6.2 µM in assay [5]. Moreover, in assay [1] (15903), the MIC of polymer stood at 6.2 µM. For the same molecule, the “fractionary inhibitory concentration (FIC) index” value in assay [1] (MRSA 15903, oxacillin + polymer at optimal concentration 2.1 μM) is 0.35. For the same molecule, the “optimal re-sensitization polymer concentration” value in assay [1] (MRSA 15903) was 2.1 µM. In assay [6] (ATCC 29213), the “mean polymer's MIC” value stood at 4.9 µg/mL. The “effect on relative MIC of now-resistant strain” value in assay [6] (now-resistant ATCC 29213, polymer alone or oxacillin + sub-MIC polymer) is “decreased the relative MIC”.
Take `CCCCCCCCCCCC(=O)N[C@@H](CCCCN)C(=O)N[C@@H](CCCCN)C(=O)NCCCCCCCCCC(=O)N[C@@H](CCCCN)C(=O)N[C@@H](CCCCN)C(=O)NCCCCCCCCCC(=O)N[C@@H](CCCCN)C(=O)N[C@@H](CCCCN)C(=O)NCCCCCCCCCC(=O)N[C@@H](CCCCN)C(N)=O` [C12K(KNC10K)3NH2] (Lauroyl-KK[NH(CH2)9CO]KK[NH(CH2)9CO]KK[NH(CH2)9CO]K-NH2): the MIC of polymer in assay [1] (15903) was found to be 6.25 µM; in [7], 3.1 µM.
Turning to `CCCCC=CCCCCCCCC(=O)N[C@@H](CCCCN)C(=O)N[C@@H](CCCCN)C(=O)NCCCCCCCCCCCC(=O)N[C@@H](CCCCN)C(N)=O` [C14(9-ene)KKNC12KNH2], the “MIC of polymer per se” value in [8] came to 6.2 µM.
Regarding `CCCCCCC=CCCCCCCCC(=O)N[C@@H](CCCCN)C(=O)N[C@@H](CCCCN)C(=O)NCCCCCCCCCCCC(=O)N[C@@H](CCCCN)C(N)=O` [C16(9-ene)KKNC12KNH2], the “MIC of polymer per se” value in assay [8] was 6.2 µM.
Turning to `NCCCCCCCCCCCC(=O)N[C@@H](CCCCN)C(=O)NCCCCCCCCCCCC(=O)N[C@@H](CCCCN)C(=O)N[C@@H](CCCCN)C(=O)NCCCCCCCCCCCC(=O)N[C@@H](CCCCN)C(N)=O` [NC12(KNC12K)2NH2] (H-[12Ado]K[12Ado]KK[12Ado]K-NH2), the MIC in [1] (15903) was determined as 6.2 µM; in [2] it was 3.1 µM; in assay [3] it was 3.1 µM (≈ 3.48 µg/mL); in assay [4] it was 3.1 µM; in assay [5], 6.2 µM. Moreover, the “improvement (decrease) in the polymer's MIC in presence of oxacillin” value in assay [1] (MRSA 15903, polymer + sub-MIC oxacillin) is recorded as “twofold”. Further, the MIC of polymer in [1] (MRSA 15903, polymer alone) amounted to 6.25 µM. Also, the “optimal re-sensitization polymer concentration” value in assay [1] (MRSA 15903) came to 2.1 µM. The “bactericidal activity, agent alone” value in [9] was “no bactericidal activity”.
